Measurements published in patent US20260041653A1, “AN HDAC INHIBITOR FOR TREATING CANCER WITH A MODIFIED STK11 ACTIVITY OR EXPRESSION” (Tango Therapeutics, Inc., priority 2022, published 2026).

Columns and labels:
[1] = test system: CT26_STK11KO tumor (KRAS G12D); test: Anti-tumor efficacy in CT26_STK11KO colon carcinoma model; assay type: in vivo, mouse; conditions: for ORR % / TGI %: CT26 STK11KO
Description: In this example, the anti-tumor activity of a combination treatment of anti-PD1 antibody with Compound I was determined in vivo in STK11-deleted syngeneic mouse models.
Briefly, mice were inoculated with STK11-deleted CT26 (murine colorectal carcinoma cell line) tumor model in a manner similar to that described in Example 1. The tumor model was resistant to murine anti-PD1 antibody by knockout of the STK11. Mice were treated with Compound I orally once daily and with anti-PD1, anti-IgG2a control, or anti-PD1 control twice per week as indicated. Tumor volume and survival was monitored over the course of treatment and plotted by individual animal for tumor volume (FIG. 7A) and by group for survival (FIG. 7B).
(§1) An in vivo anti-tumor efficacy of combination treatment of Anti-PD1 and Compound I in a CT26 mouse model was evaluated. CT26 is a colon carcinoma cell line with an endogenous KRAS G12D mutation. The experiment was performed in the parental/wild type line and in a line engineered with an STK11 knock-out (CT26_STK11KO) resulting in an anti-PD1 resistant model with lower CD8+ T cell infiltration.
In each of the experiments, the animals (8/group) were divided into four groups. Group I was treated with a control antibody Anti-IgG2, group 2 was treated with Compound I 75 mg/kg, group 3 was treated with anti-PD1 antibody, and group 4 was treated with Compound I 75 mg/kg and anti-PD1 antibody. Tumor volume and survival was monitored over the course of treatment. For the CT26_STK11KO model, the tumor volume was plotted by individual animal (FIG. 15A) and by treatment group (FIG. 15B). Survival was plotted by treatment group (FIG. 15C).
as §1, with “anti-CTLA4” for “Anti-PD1”, “anti-CTLA4-resistant model.” for “anti-PD1 resistant model with lower CD8+ T cell infiltration.”
An in vivo anti-tumor efficacy of double combination treatment of Anti-CTLA4 and Compound I in a CT26 syngeneic model was performed. CT26 is a colon carcinoma cell line. The experiment was also performed with an STK11-null CT26 model, this model is CTLA4 resistant.
There were 8 mice per group. Group I was treated with a control antibody Anti-IgG2, group 2 was treated with Compound I 75 mg/kg, group 3 was treated with anti-CTLA4 antibody, and group 4 was treated with Compound I 75 mg/kg and anti-CTLA4 antibody. Tumor volume was monitored over the course of treatment. The tumor volume was plotted by treatment group (FIG. 16A), and the individual animals were plotted for group 1 and group 4 (FIG. 16B), for the parental model. The tumor volume was plotted by treatment group (FIG. 16C), and the individual animals were plotted for group 1 and group 4 (FIG. 16D), for the STK11 knockout model.

[2] = molecular target: CYP3A4 (Homo sapiens, UniProt P08684); test: CYP3A4 (Table 5); assay type: in vitro ADME; conditions: test not described
Chain of CYP3A4 (P08684 whole entry): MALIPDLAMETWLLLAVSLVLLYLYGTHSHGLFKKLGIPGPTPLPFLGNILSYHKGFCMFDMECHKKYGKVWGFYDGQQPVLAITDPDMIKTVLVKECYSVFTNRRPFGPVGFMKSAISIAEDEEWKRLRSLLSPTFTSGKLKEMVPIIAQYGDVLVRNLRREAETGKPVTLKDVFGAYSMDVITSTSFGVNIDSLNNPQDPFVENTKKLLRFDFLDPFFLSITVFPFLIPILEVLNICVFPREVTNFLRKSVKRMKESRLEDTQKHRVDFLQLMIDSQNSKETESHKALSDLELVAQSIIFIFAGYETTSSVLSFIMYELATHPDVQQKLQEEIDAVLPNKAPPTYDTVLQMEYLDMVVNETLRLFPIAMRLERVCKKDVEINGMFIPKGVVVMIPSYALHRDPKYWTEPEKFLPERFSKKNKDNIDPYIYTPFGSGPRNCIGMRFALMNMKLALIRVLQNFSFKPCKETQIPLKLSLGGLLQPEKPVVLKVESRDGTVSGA

[3] = test system: acetyl-histone H2B; test: PK/PD study, acetyl-histone H2B in PBMC by flow cytometry; assay type: in vivo, C57BL/6 mice; conditions: 300 mg/kg QD, 2 days; 24 hours after last dose; vs vehicle control
Description: (§2) In a separate PK/PD study, MC38 tumor-bearing female C57BL/6 mice (12/group) were assigned to treatment groups with similar mean tumor volumes of approximately 430 mm^3 and treated with vehicle (5% N,N-dimethylacetamide [DMA]+30% polyethylene glycol [PEG] 400+65% of 30% 2-hydroxypropyl-beta-cyclodextrin [HP-β-CD] in water) or Compound I at 30, 100, and 300 mg/kg once daily (QD) for 2 days. Plasma samples were collected at 1, 2, 8 and 24 hours after last dose and analyzed for Compound I concentrations. Peripheral blood mononuclear cells (PBMC) and tumor samples were harvested at 2, 8, and 24 hours after last dose. The PBMC samples were processed for determination of mean florescent level of acetyl-histone H2B by flow cytometry. Tumor samples were processed for determination of protein levels of acetyl-histone H3 by Western blot.

[4] = molecular target: CYP2D6 (Homo sapiens, UniProt P10635); test: Metabolism by recombinant human CYP2D6; assay type: in vitro ADME; conditions: read-out: terminal half life (T1/2), rh CYP2D6
Chain of CYP2D6 (P10635 whole entry): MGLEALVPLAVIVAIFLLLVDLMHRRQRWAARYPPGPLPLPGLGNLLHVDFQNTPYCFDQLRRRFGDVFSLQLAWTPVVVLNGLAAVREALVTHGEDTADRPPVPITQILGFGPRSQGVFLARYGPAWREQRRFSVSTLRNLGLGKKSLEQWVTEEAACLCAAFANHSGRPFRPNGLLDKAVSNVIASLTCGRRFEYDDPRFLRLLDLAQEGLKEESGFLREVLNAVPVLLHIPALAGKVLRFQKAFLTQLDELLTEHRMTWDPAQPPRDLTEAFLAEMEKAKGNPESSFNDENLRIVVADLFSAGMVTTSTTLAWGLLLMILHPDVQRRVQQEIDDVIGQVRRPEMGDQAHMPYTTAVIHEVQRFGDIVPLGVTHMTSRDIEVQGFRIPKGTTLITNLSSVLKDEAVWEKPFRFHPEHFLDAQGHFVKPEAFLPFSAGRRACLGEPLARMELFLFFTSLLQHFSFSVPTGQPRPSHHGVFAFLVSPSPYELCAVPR
Description: (§3) Drug metabolizing enzymes involved in the biotransformation of Compound I were investigated using human liver microsomes (HLM) and recombinant enzymes. Compound I was stable in HLMs (>93% remaining after 240 minutes of incubation with HLM protein concentration at 0.6 mg/ml). CYP selective inhibitor experiments were not performed due to lack of appreciable Compound I turnover.

[5] = PK/PD study, body weight and clinical signs; assay type: in vivo, C57BL/6 mice; conditions: 30, 100, 300 mg/kg QD for 2 days
Description: as §2

[6] = molecular target: CYP2C9 (Homo sapiens, UniProt P11712); test: Metabolism by recombinant human CYP2C9; assay type: in vitro ADME; conditions: read-out: terminal half life (T1/2), rh CYP2C9
Chain of CYP2C9 (P11712 whole entry): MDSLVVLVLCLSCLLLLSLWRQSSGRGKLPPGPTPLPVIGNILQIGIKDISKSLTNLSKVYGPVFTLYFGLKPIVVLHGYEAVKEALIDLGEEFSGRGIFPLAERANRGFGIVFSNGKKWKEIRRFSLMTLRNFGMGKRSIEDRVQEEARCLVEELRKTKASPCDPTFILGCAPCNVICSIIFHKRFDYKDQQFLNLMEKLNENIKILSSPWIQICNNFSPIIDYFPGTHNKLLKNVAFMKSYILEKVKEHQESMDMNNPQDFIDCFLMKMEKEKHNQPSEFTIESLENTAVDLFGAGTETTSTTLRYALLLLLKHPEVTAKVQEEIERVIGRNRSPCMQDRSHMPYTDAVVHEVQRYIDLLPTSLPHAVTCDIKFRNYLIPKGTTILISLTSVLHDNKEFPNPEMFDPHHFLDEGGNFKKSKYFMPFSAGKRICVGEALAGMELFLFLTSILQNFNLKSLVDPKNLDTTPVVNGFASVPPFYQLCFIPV
Description: as §3

[7] = Predicted human PK; conditions: calculated from rodent and dog data
Description: The human PK parameters for a dose of Compound I that is predicted to be efficacious were calculated based on the data from rodent and dog studies and are presented in Table 6.

[8] = molecular target: CYP2C8 (Homo sapiens, UniProt P10632); test: Metabolism by recombinant human CYP2C8; assay type: in vitro ADME; conditions: read-out: terminal half life (T1/2), rh CYP2C8
Chain of CYP2C8 (P10632 whole entry): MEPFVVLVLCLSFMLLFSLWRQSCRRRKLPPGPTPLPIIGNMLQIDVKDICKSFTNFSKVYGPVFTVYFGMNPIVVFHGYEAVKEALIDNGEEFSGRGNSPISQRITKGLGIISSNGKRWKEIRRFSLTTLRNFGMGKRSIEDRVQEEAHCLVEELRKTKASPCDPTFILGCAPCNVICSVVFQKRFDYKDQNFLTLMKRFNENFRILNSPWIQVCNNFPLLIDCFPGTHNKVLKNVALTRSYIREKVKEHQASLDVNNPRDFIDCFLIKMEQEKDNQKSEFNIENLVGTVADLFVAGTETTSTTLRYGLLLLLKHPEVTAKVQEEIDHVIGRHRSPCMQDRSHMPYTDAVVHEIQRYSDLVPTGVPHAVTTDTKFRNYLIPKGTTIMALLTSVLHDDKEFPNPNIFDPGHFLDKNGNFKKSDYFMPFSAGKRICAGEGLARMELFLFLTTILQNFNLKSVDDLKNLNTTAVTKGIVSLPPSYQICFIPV
Description: as §3

[9] = Compound I 75 mg/kg QD alone, second of two values (two experiments, Examples 14 and 15)
[10] = Compound I 75 mg/kg QD, antibodies 10 mg/kg, for Compound I alone the first of two printed values

SMILES: C[S@@](=N)(=O)c1ccc(C(=O)Nc2cc(-c3ccc(F)cc3)ccc2N)cc1 [Compound I, (R)—N-(4-amino-4′-fluoro-[1,1′-biphenyl]-3-yl)-4-(S-methylsulfonimidoyl)benzamide]
- ORR % [1, 9]: 38%
- TGI % [1, 9]: 70%
- ORR % [1, 10]: 0%
- TGI % [1, 10]: 39%
- resistance to immune checkpoint blockade driven by loss of STK11 ([1]; tumor models for colon adenocarcinoma and colorectal carcinoma (Examples 1 and 5)): reverses resistance to immune checkpoint blockade
- CYP3A4 [2]: No signal
- maximal induction of histone acetylation in PBMC [3]: 8 fold
- half-life [4]: > 1 h
- body weight loss and clinical signs [5]: No obvious body weight loss of more than 5% or adverse clinical signs
- half-life [6]: > 1 h
- % F [7]: 78%
- MRT [7]: 9.5 h
- T1/2 [7]: 6.6 h
- Total AUC ([7]; dose predicted to be efficacious): 6300 ng·h/mL
- half-life [8]: > 1 h
